Measured values reported in publication PMC10489980, “Design of Potent and Salt-Insensitive Antimicrobial Branched Peptides” (Polymers, 2023).
Where two headings read alike, the source gives them in different places. Positions of bridges follow the written chain, without caps; N, C: chain ends. Residues, ends and D or L forms follow the SMILES beside them. Chains are numbered I, II in the order given. *: point of attachment. Fmoc = O=C(OCC1c2ccccc2-c2ccccc21)*

Tests used:
Type in all cases: cell-based
[1] = system: Candida albicans ATCC 37092
Source text: (§1) Ten organisms obtained from the American Type Culture Collection (ATCC; Rockville, MD) were used for antimicrobial assays. Four Gram-negative bacteria included Escherichia coli ATCC 25922, Pseudomonas aeruginosa ATCC 27853, Klebsiella oxytoca ATCC 49131, and Proteus vulgaris ATCC 49132. The three Gram-positive bacteria were Staphylococcus aureus 29213, Micrococcus luteus ATCC 49,732, and Enterococcus faecalis ATCC 29212. The three fungi were Candida albicans ATCC 37092, Candida kefyr ATCC 37095, and Candida tropicalis ATCC 37097. The clinical isolates were obtained from Singapore General Hospital (SGH). They are Enterococcus faecium, Staphylococcus aureus, Klebsiella pneumoniae, Acinetobacter baumannii, Pseudomonas aeruginosa, and Enterobacter species. The strains were incubated in trypticase soy broth (TSB), which was prepared in double distilled water and autoclaved for sterilization. TSB was purchased from Becton-Dickinson (Cockeysville, MD, USA).
(§2) Antimicrobial Assays. A sensitive and reproducible two-stage radial diffusion antimicrobial assay of Lehrer et al. was employed. A 1–4 × 10^6 colony-forming unit/mL of the test organism was mixed with 10 mL of molten underlay gel solution and poured into Petri dishes to form a uniform layer. The gel solution consisted of 10 mM sodium phosphate buffer, 0.03% TSB, and 0.02% Tween-20, with the addition of 100 mM NaCl in the case of high-salt conditions. Upon gel solidification, gel wells were made by a 3-mm diameter template in an evenly spaced array. A 5 µL aliquot of a serial half-log dilution of test peptides at seven concentrations was added to each well after removal of gel plugs. The dishes were incubated at 37 °C for 3 h to allow peptide diffusion into the underlay gels. Gels were overlaid with 10 mL of 1% agarose in 6% TSB (wt/vol). After additional incubation at 37 °C for 16–24 h, the diameter of the clear zone surrounding the wells (colony-free) was measured under a microscope. Antimicrobial activities were expressed in units (0.1 mm = 1 unit), and the MICs (in µM) were determined from the x-intercepts of the dose-response curves. Experiments were performed in triplicates.

Candida kefyr ATCC 37095 = system: Candida kefyr ATCC 37095
Source text: as §1, §2

[2] = system: Candida tropicalis ATCC 37097
Source text: as §1, §2

[3] = system: Enterococcus faecalis ATCC 29212
Source text: as §1, §2

[4] = system: Escherichia coli ATCC 25922
Source text: as §1, §2

[5] = system: Klebsiella oxytoca ATCC 49131
Source text: as §1, §2

[6] = system: Micrococcus luteus ATCC 49,732
Source text: as §1, §2

[7] = system: Proteus vulgaris ATCC 49132
Source text: as §1, §2

[8] = system: Pseudomonas aeruginosa ATCC 27853
Source text: as §1, §2

[9] = system: Staphylococcus aureus 29213
Source text: as §1, §2

MIC, C. albicans, H-Salt ([1]; ATCC 37092, 3 h)	MIC, C. albicans, L-Salt ([1]; ATCC 37092, 3 h)	MIC, C. kefyr, H-Salt (Candida kefyr ATCC 37095; ATCC 37095, 3 h)	MIC, C. kefyr, L-Salt (Candida kefyr ATCC 37095; ATCC 37095, 3 h)	MIC, C. tropicalis, H-Salt ([2]; ATCC 37097, 3 h)	MIC, C. tropicalis, L-Salt ([2]; ATCC 37097, 3 h)	MIC, E. faecalis, H-Salt ([3]; ATCC 29212, 3 h)	MIC, E. faecalis, L-Salt ([3]; ATCC 29212, 3 h)	MIC, E. coli, H-Salt ([4]; ATCC 25922, 3 h)	MIC, E. coli, L-Salt ([4]; ATCC 25922, 3 h)	MIC, K. oxytoca, H-Salt ([5]; ATCC 49131, 3 h)	MIC, K. oxytoca, L-Salt ([5]; ATCC 49131, 3 h)	MIC, M. luteus, H-Salt ([6]; ATCC 49, 3 h)	MIC, M. luteus, L-Salt ([6]; ATCC 49, 3 h)	MIC, P. vulgaris, H-Salt ([7]; ATCC 49132, 3 h)	MIC, P. vulgaris, L-Salt ([7]; ATCC 49132, 3 h)	MIC, P. aeruginosa, H-Salt ([8]; ATCC 27853, 3 h)	MIC, P. aeruginosa, L-Salt ([8]; ATCC 27853, 3 h)	MIC, S. aureus, H-Salt ([9]; 29213, 3 h)	MIC, S. aureus, L-Salt ([9]; 29213, 3 h)	Structure (SMILES)	further results
0.8 µM	0.7 µM	0.7 µM	0.8 µM	1.2 µM	0.8 µM	0.8 µM	0.5 µM	0.4 µM	0.6 µM	0.7 µM	0.7 µM	0.7 µM	0.6 µM	0.5 µM	0.7 µM	0.8 µM	0.7 µM	0.7 µM	0.5 µM	CC(C)C[C@H](NC(=O)[C@@H](N)CCCNC(=N)N)C(=O)N[C@@H](Cc1ccc(O)cc1)C(=O)N[C@@H](CCCNC(=N)N)C(=O)N[C@@H](CCCCNC(=O)[C@H](CCCCNC(=O)[C@H](CCCCNC(=O)OCC1c2ccccc2-c2ccccc21)NC(=O)[C@H](CCCNC(=N)N)NC(=O)[C@H](Cc1ccc(O)cc1)NC(=O)[C@H](CC(C)C)NC(=O)[C@@H](N)CCCNC(=N)N)NC(=O)[C@H](CCCNC(=N)N)NC(=O)[C@H](Cc1ccc(O)cc1)NC(=O)[C@H](CC(C)C)NC(=O)[C@@H](N)CCCNC(=N)N)C(N)=O [iK3R] (I: H-RLYRK-NH2 / II: H-RLYRK(Fmoc) / III: H-RLYRK; amide I:5-III:C, II:C-III:5)	–
–	–	–	–	–	–	–	–	–	–	–	–	–	–	–	–	–	–	–	–	CC(=O)NCCCC[C@H](NC(=O)[C@H](CCCNC(=N)N)NC(=O)[C@H](Cc1ccc(O)cc1)NC(=O)[C@H](CC(C)C)NC(=O)[C@@H](N)CCCNC(=N)N)C(=O)NCCCC[C@H](NC(=O)[C@H](CCCNC(=N)N)NC(=O)[C@H](Cc1ccc(O)cc1)NC(=O)[C@H](CC(C)C)NC(=O)[C@@H](N)CCCNC(=N)N)C(=O)NCCCC[C@H](NC(=O)[C@H](CCCNC(=N)N)NC(=O)[C@H](Cc1ccc(O)cc1)NC(=O)[C@H](CC(C)C)NC(=O)[C@@H](N)CCCNC(=N)N)C(=O)NCCCC[C@H](NC(=O)[C@H](CCCNC(=N)N)NC(=O)[C@H](Cc1ccc(O)cc1)NC(=O)[C@H](CC(C)C)NC(=O)[C@@H](N)CCCNC(=N)N)C(N)=O [iK4R] (HELM PEPTIDE1{R.L.Y.R.K}|PEPTIDE2{[ac]}|PEPTIDE3{R.L.Y.R.K}|PEPTIDE4{R.L.Y.R.K}|PEPTIDE5{R.L.Y.R.K.[am]}$PEPTIDE1,PEPTIDE2,5:R3-1:R2|PEPTIDE1,PEPTIDE3,5:R2-5:R3|PEPTIDE3,PEPTIDE4,5:R2-5:R3|PEPTIDE4,PEPTIDE5,5:R2-5:R3$$$V2.0)	MIC, C. albicans, H-Salt ([1]; ATCC 37092, radial diffusion assay, high-salt (100 mM NaCl), triplicates): 0.9 µM; MIC, C. albicans, L-Salt ([1]; ATCC 37092, radial diffusion assay, low-salt (without NaCl), triplicates): 0.8 µM; MIC, C. kefyr, H-Salt (Candida kefyr ATCC 37095; ATCC 37095, radial diffusion assay, high-salt (100 mM NaCl), triplicates): 0.8 µM; MIC, C. kefyr, L-Salt (Candida kefyr ATCC 37095; ATCC 37095, radial diffusion assay, low-salt (without NaCl), triplicates): 0.8 µM; MIC, C. tropicalis, H-Salt ([2]; ATCC 37097, radial diffusion assay, high-salt (100 mM NaCl), triplicates): 1.3 µM; MIC, C. tropicalis, L-Salt ([2]; ATCC 37097, radial diffusion assay, low-salt (without NaCl), triplicates): 0.5 µM; MIC, E. faecalis, H-Salt ([3]; ATCC 29212, radial diffusion assay, high-salt (100 mM NaCl), triplicates): 1.4 µM; MIC, E. faecalis, L-Salt ([3]; ATCC 29212, radial diffusion assay, low-salt (without NaCl), triplicates): 0.8 µM; MIC, E. coli, H-Salt ([4]; ATCC 25922, two-stage radial diffusion assay, high-salt (underlay gel 10 mM sodium phosphate, 0.03% TSB, 0.02% Tween-20, with 100 mM NaCl), 37 °C, x-intercept of dose-response curve, triplicates): 0.4 µM; MIC, E. coli, L-Salt ([4]; ATCC 25922, two-stage radial diffusion assay, low-salt (underlay gel 10 mM sodium phosphate, 0.03% TSB, 0.02% Tween-20, without NaCl), 37 °C, x-intercept of dose-response curve, triplicates): 0.4 µM; MIC, K. oxytoca, H-Salt ([5]; ATCC 49131, radial diffusion assay, high-salt (100 mM NaCl), triplicates): 0.7 µM; MIC, K. oxytoca, L-Salt ([5]; ATCC 49131, radial diffusion assay, low-salt (without NaCl), triplicates): 0.5 µM; MIC, M. luteus, H-Salt ([6]; ATCC 49,732, radial diffusion assay, high-salt (100 mM NaCl), triplicates): 0.8 µM; MIC, M. luteus, L-Salt ([6]; ATCC 49,732, radial diffusion assay, low-salt (without NaCl), triplicates): 0.9 µM; MIC, P. vulgaris, H-Salt ([7]; ATCC 49132, radial diffusion assay, high-salt (100 mM NaCl), triplicates): 0.7 µM; MIC, P. vulgaris, L-Salt ([7]; ATCC 49132, radial diffusion assay, low-salt (without NaCl), triplicates): 0.8 µM; MIC, P. aeruginosa, H-Salt ([8]; ATCC 27853, radial diffusion assay, high-salt (100 mM NaCl), triplicates): 0.7 µM; MIC, P. aeruginosa, L-Salt ([8]; ATCC 27853, radial diffusion assay, low-salt (without NaCl), triplicates): 0.5 µM; MIC, S. aureus, H-Salt ([9]; strain 29213, radial diffusion assay, high-salt (100 mM NaCl), triplicates): 0.6 µM; MIC, S. aureus, L-Salt ([9]; strain 29213, radial diffusion assay, low-salt (without NaCl), triplicates): 0.7 µM
0.8 µM	0.8 µM	0.7 µM	0.6 µM	0.9 µM	1.2 µM	1.6 µM	0.8 µM	0.5 µM	0.5 µM	1.3 µM	0.5 µM	0.6 µM	1.0 µM	0.7 µM	0.6 µM	0.8 µM	0.6 µM	0.7 µM	0.8 µM	CC(C)C[C@H](NC(=O)[C@@H](N)CCCNC(=N)N)C(=O)N[C@@H](Cc1ccc(O)cc1)C(=O)N[C@@H](CCCNC(=N)N)C(=O)NCCCC[C@H](NC(=O)[C@H](CCCNC(=N)N)NC(=O)[C@H](Cc1ccc(O)cc1)NC(=O)[C@H](CC(C)C)NC(=O)[C@@H](N)CCCNC(=N)N)C(=O)NCCCC[C@H](NC(=O)[C@H](CCCNC(=N)N)NC(=O)[C@H](Cc1ccc(O)cc1)NC(=O)[C@H](CC(C)C)NC(=O)[C@@H](N)CCCNC(=N)N)C(=O)NCCCC[C@H](NC(=O)[C@H](CCCNC(=N)N)NC(=O)[C@H](Cc1ccc(O)cc1)NC(=O)[C@H](CC(C)C)NC(=O)[C@@H](N)CCCNC(=N)N)C(=O)NCCCC[C@H](NC(=O)[C@H](CCCNC(=N)N)NC(=O)[C@H](Cc1ccc(O)cc1)NC(=O)[C@H](CC(C)C)NC(=O)[C@@H](N)CCCNC(=N)N)C(N)=O [iK5R] (HELM PEPTIDE1{R.L.Y.R.K}|PEPTIDE2{R.L.Y.R}|PEPTIDE3{R.L.Y.R.K}|PEPTIDE4{R.L.Y.R.K}|PEPTIDE5{R.L.Y.R.K.[am]}$PEPTIDE1,PEPTIDE2,5:R3-4:R2|PEPTIDE1,PEPTIDE3,5:R2-5:R3|PEPTIDE3,PEPTIDE4,5:R2-5:R3|PEPTIDE4,PEPTIDE5,5:R2-5:R3$$$V2.0; N-terminus assumed)	–
12.4 µM	4.8 µM	2.0 µM	1.3 µM	2.3 µM	2.8 µM	> 500 µM	51.6 µM	12.8 µM	1.3 µM	5.4 µM	2.2 µM	8.8 µM	3.1 µM	27.6 µM	8.3 µM	3.2 µM	5.8 µM	56.2 µM	17.2 µM	CC(=O)NCCC[C@H](NC(=O)[C@H](CCCNC(=N)N)NC(=O)[C@H](Cc1ccc(O)cc1)NC(=O)[C@H](CC(C)C)NC(=O)[C@@H](N)CCCNC(=N)N)C(=O)NCCC[C@H](NC(=O)[C@H](CCCNC(=N)N)NC(=O)[C@H](Cc1ccc(O)cc1)NC(=O)[C@H](CC(C)C)NC(=O)[C@@H](N)CCCNC(=N)N)C(=O)NCCC[C@H](NC(=O)[C@H](CCCNC(=N)N)NC(=O)[C@H](Cc1ccc(O)cc1)NC(=O)[C@H](CC(C)C)NC(=O)[C@@H](N)CCCNC(=N)N)C(N)=O [iO3R] (HELM PEPTIDE1{R.L.Y.R.[Orn]}|PEPTIDE2{[ac]}|PEPTIDE3{R.L.Y.R.[Orn]}|PEPTIDE4{R.L.Y.R.[Orn].[am]}$PEPTIDE1,PEPTIDE2,5:R3-1:R2|PEPTIDE1,PEPTIDE3,5:R2-5:R3|PEPTIDE3,PEPTIDE4,5:R2-5:R3$$$V2.0)	–
